The record followed here is patent EP4714938A1, “HDAC1/2 SELECTIVE INHIBITOR AND USE THEREOF” (Wigen Biomedicine Technology (Shanghai) Co., Ltd., priority 2023, dated 2024).

The subject of one data set is 293T cell. The data set can be described thus: Inhibition of cell proliferation (CTG, intracellular ATP). The data set is classed as cell-based. The following applies: Homo sapiens, HEK-293T, 72 h. On the procedure:
(§1) Jurkat or 293T cells were seeded into a 96-well plate at 3000 cells/well. After overnight adherence culture, the serially diluted compound in DMSO was added. After 72 h, the intracellular ATP level was determined by CTG. The IC50 for the inhibition of cell proliferation by the compounds was calculated compared to the DMSO group. Table 7. Inhibitory activity of compounds of the present disclosure against Jurkat/293T cell proliferation (IC50, µM)

A further data set has as its system Jurkat cell. Described as above. The following applies: Homo sapiens, Jurkat, 72 h. Format: cell-based. On the procedure:
as §1

For the next data set, the target named is T1, HDAC6 (Homo sapiens, UniProt Q9UBN7).
T1 sequence (Q9UBN7 1-1215): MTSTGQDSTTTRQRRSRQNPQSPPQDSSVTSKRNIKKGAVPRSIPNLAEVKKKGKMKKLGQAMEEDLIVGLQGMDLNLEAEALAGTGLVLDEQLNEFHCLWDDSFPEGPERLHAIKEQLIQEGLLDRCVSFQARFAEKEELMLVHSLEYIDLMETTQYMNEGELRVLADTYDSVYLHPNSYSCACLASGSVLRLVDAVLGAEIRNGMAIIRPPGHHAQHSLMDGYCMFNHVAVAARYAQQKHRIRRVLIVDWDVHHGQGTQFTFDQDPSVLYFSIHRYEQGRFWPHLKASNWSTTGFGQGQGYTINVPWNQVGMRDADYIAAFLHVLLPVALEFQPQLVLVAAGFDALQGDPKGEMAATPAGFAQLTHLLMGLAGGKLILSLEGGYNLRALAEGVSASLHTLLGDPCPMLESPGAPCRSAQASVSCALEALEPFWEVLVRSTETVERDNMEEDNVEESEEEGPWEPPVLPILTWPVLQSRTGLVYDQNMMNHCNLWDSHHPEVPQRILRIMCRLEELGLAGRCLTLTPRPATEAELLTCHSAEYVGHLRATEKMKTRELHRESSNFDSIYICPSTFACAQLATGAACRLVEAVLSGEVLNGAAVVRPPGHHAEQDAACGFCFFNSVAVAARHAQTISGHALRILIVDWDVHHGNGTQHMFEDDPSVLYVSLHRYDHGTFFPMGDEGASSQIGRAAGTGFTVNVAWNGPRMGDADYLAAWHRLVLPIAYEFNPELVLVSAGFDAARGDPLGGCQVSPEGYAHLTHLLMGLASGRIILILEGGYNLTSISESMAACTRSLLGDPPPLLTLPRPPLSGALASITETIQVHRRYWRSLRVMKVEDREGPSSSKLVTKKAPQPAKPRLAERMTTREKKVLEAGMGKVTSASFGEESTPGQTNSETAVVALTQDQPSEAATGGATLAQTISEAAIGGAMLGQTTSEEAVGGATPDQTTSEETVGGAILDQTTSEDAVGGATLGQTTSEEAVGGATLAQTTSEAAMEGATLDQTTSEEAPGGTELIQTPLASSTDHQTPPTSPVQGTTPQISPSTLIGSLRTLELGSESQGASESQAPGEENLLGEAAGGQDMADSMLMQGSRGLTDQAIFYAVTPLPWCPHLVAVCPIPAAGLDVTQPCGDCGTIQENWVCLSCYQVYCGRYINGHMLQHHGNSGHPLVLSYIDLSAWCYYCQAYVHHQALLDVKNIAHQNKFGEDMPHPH
The data set can be described thus: HDAC enzyme inhibitory activity, FRET method. The data set is classed as biochemical. The following applies: Table 6; read-out: IC50 HDAC subtype 6.

In a further data set the target is HDAC5 (Homo sapiens, UniProt Q9UQL6). The data set can be described thus: HDAC enzyme inhibitory activity, FRET method. The following applies: Table 6; read-out: IC50 HDAC subtype 5. The data set is classed as biochemical.
The next data set concerns Acetyl lysine. The data set can be described thus: Intracellular acetyl lysine level by ELISA in HeLa cells. The data set is classed as cell-based. The following applies: 24 h of treatment. On the procedure: HeLa cells were seeded into a 96-well plate at 20000 cells/well. After overnight adherence culture, the serially diluted compound was added. After 24 h of treatment, intracellular levels of acetyl lysine and H3K 27 acetyl lysine were quantified by ELISA. Table 8. Effect of compound of the present disclosure on levels of acetyl lysine and H3K 27 acetyl lysine
(In an ELISA, binding on a coated surface is turned into a signal by an enzyme label.)

Data set [1] concerns Mouse colon cancer CT-26 cells. The following applies: for Tumor response, number of mice (CR/PR/SD): 6 mice per group; for TGI(%): QD for 14 consecutive days, PO.
Description: Female BALB/c mice (aged 6 weeks, 18-22 g) were provided by Vital River Laboratory Animal Technology Co., Ltd. (China) and used one week after quarantine and acclimation. All animals were kept in a room at 23±2 °C with a relative humidity of 50±5%, artificial lighting was provided from 08:00 to 20:00 every day, and the air was exchanged 13-18 times per hour.
Mouse colon cancer CT-26 cells were cultured conventionally in 1640 medium containing 10% fetal bovine serum in an incubator at 37 °C with 5% CO2. After being subcultured, the cells were collected when they reached the desired amount. The BALB/c mice were subcutaneously injected with 2 × 10^5 CT-26 cells on the right side to form tumors. After the tumors grew to about 100 mm^3, the animals were randomly grouped for administration. Tumor volumes were measured with a caliper on day 3, day 7, day 10, day 14, day 17, and day 21 after the administration. The ability of the compounds to inhibit tumor growth was evaluated according to the tumor growth inhibition rate (TGI) = 1 - (tumor volume on day 28 in treatment group - tumor volume on day 1 in treatment group)/(tumor volume on day 28 in control group - tumor volume on day 1 in control group). The toxicity of the compounds was evaluated according to the body weight and state of the mice.
The target of a further data set is T2, HDAC10 (Homo sapiens, UniProt Q969S8).
T2 sequence (Q969S8 1-669): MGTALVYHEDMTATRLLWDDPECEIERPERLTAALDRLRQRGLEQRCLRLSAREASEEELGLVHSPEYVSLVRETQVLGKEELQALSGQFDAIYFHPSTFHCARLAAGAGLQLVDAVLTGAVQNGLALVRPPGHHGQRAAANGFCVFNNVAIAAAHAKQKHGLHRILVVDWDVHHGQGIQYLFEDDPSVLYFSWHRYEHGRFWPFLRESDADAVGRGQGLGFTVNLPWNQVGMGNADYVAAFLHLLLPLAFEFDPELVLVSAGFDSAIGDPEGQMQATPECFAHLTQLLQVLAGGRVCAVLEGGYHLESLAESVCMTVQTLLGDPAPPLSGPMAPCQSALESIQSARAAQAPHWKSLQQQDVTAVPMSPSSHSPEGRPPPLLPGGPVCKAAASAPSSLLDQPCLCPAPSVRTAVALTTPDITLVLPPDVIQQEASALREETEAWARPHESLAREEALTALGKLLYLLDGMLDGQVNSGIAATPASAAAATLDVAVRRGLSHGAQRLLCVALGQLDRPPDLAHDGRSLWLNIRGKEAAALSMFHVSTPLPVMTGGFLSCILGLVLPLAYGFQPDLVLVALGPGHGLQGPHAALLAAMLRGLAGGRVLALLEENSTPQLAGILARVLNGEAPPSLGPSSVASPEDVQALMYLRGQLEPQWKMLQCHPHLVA
The data set can be described thus: biochemical.

The target of the next data set is HDAC3 (Homo sapiens, UniProt O15379). The data set can be described thus: HDAC enzyme inhibitory activity, FRET method. The data set is classed as biochemical.
In another data set the target is HDAC1 (Homo sapiens, UniProt Q13547). The data set can be described thus: HDAC enzyme inhibitory activity, FRET method. The data set is classed as biochemical.

Where two headings read alike, the source gives them in different places. Where only a bound is given, the exact number is not on record here.

HDAC1, sequence (Q13547 whole entry, species assumed): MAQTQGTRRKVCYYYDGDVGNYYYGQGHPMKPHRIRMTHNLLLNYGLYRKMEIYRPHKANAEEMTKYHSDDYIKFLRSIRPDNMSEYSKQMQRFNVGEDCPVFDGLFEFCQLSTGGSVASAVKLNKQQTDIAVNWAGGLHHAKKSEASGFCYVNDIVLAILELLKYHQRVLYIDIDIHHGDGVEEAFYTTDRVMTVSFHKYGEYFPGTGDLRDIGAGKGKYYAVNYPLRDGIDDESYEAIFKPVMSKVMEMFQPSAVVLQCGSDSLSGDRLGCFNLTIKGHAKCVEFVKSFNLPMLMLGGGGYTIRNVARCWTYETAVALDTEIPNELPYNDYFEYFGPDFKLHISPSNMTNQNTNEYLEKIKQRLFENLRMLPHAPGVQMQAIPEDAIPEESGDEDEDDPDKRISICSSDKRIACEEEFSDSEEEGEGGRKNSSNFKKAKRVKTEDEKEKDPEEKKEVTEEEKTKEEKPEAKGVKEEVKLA
HDAC3, sequence (O15379 whole entry, species assumed): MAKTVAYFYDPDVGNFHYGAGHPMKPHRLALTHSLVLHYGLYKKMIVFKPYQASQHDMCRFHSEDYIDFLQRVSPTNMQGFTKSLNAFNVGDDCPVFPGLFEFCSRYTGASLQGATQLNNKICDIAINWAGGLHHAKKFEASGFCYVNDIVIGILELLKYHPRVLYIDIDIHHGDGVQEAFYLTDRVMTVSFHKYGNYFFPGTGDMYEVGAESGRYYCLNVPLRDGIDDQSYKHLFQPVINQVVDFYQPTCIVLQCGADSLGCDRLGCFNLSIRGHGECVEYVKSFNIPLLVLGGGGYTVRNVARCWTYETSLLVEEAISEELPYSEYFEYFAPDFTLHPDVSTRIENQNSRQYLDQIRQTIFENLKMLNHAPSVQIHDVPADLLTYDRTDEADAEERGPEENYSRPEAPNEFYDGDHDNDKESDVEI
HDAC3, sequence (Q9Y618 395-489 partner limits assumed, species assumed): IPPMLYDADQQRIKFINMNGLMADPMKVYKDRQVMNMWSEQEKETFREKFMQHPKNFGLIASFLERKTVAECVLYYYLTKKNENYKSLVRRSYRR
HDAC5, sequence (Q9UQL6 whole entry, species assumed): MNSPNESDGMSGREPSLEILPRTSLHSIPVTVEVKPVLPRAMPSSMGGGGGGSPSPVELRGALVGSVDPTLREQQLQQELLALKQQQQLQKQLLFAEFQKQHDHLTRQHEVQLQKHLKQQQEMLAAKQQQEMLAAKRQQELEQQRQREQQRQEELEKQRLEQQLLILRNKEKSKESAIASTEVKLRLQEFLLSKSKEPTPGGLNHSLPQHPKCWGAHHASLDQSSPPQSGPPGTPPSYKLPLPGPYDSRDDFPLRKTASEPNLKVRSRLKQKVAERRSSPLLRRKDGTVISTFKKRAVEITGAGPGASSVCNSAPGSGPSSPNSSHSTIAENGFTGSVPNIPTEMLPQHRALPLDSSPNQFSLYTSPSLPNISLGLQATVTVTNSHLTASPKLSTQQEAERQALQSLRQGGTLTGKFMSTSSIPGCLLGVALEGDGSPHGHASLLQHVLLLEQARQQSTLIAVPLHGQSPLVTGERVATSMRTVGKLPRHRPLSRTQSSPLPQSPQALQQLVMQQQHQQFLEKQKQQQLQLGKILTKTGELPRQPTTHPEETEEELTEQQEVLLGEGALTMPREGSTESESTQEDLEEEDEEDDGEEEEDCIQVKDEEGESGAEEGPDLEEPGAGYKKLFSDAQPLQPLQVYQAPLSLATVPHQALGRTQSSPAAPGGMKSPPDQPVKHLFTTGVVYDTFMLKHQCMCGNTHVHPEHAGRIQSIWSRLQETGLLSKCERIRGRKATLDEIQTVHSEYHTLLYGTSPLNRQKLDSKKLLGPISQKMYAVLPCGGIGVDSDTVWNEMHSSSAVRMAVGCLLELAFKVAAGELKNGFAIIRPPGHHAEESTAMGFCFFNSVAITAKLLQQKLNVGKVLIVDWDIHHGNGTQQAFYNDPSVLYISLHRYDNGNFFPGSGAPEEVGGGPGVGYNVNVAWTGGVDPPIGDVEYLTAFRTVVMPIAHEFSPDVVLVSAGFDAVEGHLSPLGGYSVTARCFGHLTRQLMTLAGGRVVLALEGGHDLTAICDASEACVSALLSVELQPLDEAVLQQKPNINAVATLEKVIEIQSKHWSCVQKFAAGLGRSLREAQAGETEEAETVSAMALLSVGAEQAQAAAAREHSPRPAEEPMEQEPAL
Description for HDAC10: (§2) The compounds of the present disclosure were assayed for enzyme inhibitory activity against various subtypes of HDAC enzymes by the FRET method. The various subtypes of HDAC enzymes were obtained either through purification or direct purchase of assay kits.
(§3) The specific method was as follows: The enzyme was added to a 384-well plate, and a reaction buffer was added to the control well. Serially diluted DMSO sample solutions were added to the reaction wells, and the plate was incubated at room temperature for 15 min. Then a chromogenic agent was added to stop the reaction, and fluorescence was generated. The fluorescence intensity was measured using an EnVision multi-label microplate reader (excitation: 355 nm, emission: 460 nm). The endpoint value was read after the color development reached stability. The inhibition IC50 of the compounds was calculated using GraphPad Prism4 software relative to DMSO.
Description for HDAC3: as §2, §3
Description for HDAC5: as §2, §3
Description for HDAC6: as §2, §3

One may read the IC50 as the concentration at which inhibition is half-maximal. For `CS(C)(=O)=Nc1ccc(C(=O)Nc2cc(-c3ccc(F)cc3)ccc2N)cc1` [Compound 1, N-(4-Amino-4'-fluoro-[1,1'-biphenyl]-3-yl)-4-((dimethyl(oxo)-1^λ-6-sulfaneylidene)amino)benzamide], the 50% inhibitory concentration (IC50) in the data set on 293T cell was > 10000 nM; in the data set on Jurkat cell it was 650 nM; on HDAC6, > 30000 nM; at HDAC5, > 30000 nM; on HDAC10, 22.2 nM; on HDAC3 (Table 4, read-out: IC50 HDAC3), > 5000 nM. Besides, the IC50 on HDAC3 (Table 5, read-out: IC50 HDAC3) was > 3000 nM; on HDAC3 (Table 6, read-out: IC50 HDAC subtype 3), 5510 nM; on HDAC1 (Table 4, read-out: IC50 HDAC1), < 500 nM; on HDAC1 (Table 5, read-out: IC50 HDAC1) it was < 30 nM; on HDAC1 (Table 6, read-out: IC50 HDAC subtype 1), 26.5 nM. In the data set on Acetyl lysine, the “Acetyl lysine Maximum (%)” value was 500%. Also, in the data set with Acetyl lysine, the “Acetyl lysine Minimum effective concentration” value worked out at 16 nM. The “Change in body weight(%)” value in data set [1] (monotherapy 30 mg/kg QD PO) is listed as 1.13+3.79%; in data set [1] (monotherapy 90 mg/kg QD PO), -10.53+7.1%. Moreover, the “Tumor response, number of mice (CR/PR/SD)” value in data set [1] (monotherapy 30 mg/kg QD PO) came out at 1PR; in data set [1] (monotherapy 90 mg/kg QD PO), 1PR+1SD. For the same compound, the figures for the “TGI(%)” value in data set [1] (monotherapy 30 mg/kg) and in data set [1] (monotherapy 90 mg/kg) were 38.57% and 88.35%, respectively.
